Source: US20100221709A1, “METHODS FOR IDENTIFYING AGENTS THAT MODULATE APOPTOSIS IN CELLS THAT OVER-EXPRESS A BCL-2 FAMILY MEMBER PROTEIN” (priority 2005, published 2010)
Several values for one entry are separate records, joined by “and”; a condition that tells them apart may be missing. Equal values may be shown once.

Assays:
RPMI-8226 cells [1] = test: GI50 assay, MTT cell proliferation; format: cell-based, human
Experimental: RPMI-8226 cells were grown in 96 well plates for 24 h prior to addition of 2-methoxy antimycins. Antimycin stocks in dimethyl sulfoxide (DMSO) were serially diluted in RPMI. Cells were incubated for 48 h with compounds at final compound concentrations ranging from 10^−4 to 10^−8 M. MTT cell proliferation assays were performed in quadruplicate and percent growth inhibitions were calculated as (A570 (control cells)-A570 (treated cells))/A570 (control cells). GI50 was extrapolated from semi-log plots of the dose response for each compound. […] After 72 h drug exposures, 1 μCi/ml [^3H]-thymidine was added to wells. Cells were incubated for an additional 24 h, and then transferred to GF/C filter plates (Packard) using a plate washer. Filters were dried, added to scintillant, and counted in a TopCount® scintillation counter (Packard). Drug response is expressed as the percentage of vehicle-treated controls, and each value shown is the average of three determinations.

Bcl-xL(ΔC) WT = molecular target: T1, Bcl-xL(ΔC) WT (Homo sapiens, UniProt Q07817); test: Pore assay, calcein release from large unilamellar vesicles; format: biochemical
T1 construct: inferred from pET22b(+) NdeI/XhoI cloning and nickel-NTA purification) (C); made in house; host or cells: Escherichia coli BL21(DE3) carrying pUB520
T1 sequence (Q07817 1-211 limits assumed, stated change not applied): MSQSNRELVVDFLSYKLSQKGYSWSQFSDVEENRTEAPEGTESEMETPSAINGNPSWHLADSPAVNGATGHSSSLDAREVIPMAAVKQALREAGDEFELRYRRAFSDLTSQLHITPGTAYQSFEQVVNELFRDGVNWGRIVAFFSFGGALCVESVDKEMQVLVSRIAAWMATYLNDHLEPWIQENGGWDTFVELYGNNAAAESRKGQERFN
Experimental: Large unilamellar vesicles composed of 60% dioleoylphophatidylcholine and 40% dioleoylphosphatidylglycerol were prepared by the extrusion method of Mayer et al., supra. Lipid stocks, in chloroform, were mixed and dried under a stream of nitrogen gas. The lipid was resuspended by vortexing for 30 min in a solution of 40 mM calcein (Molecular Probes), 25 mM KCl, and 10 mM KOAc, pH 5.0. After 10 freeze-thaw cycles, the lipid suspension was extruded through two 0.1 μm pore diameter Nucleopore filters. Non-entrapped dye was removed by passage over a Sephadex G10 column (Amersham Biosciences). Lipid concentration was measured using the ammonium ferrothiocyanate method (Stewart, Anal. Biochem. 104:10-14, 1980).
For pore assays, recombinant truncated Bcl-2 family protein or mutant protein (Bcl-xL(ΔC)) (500 nM) was added to large unilamellar vesicles (60 μM lipid concentration) in 100 mM KCl, 10 mM KOAc, pH 5.0, and fluorescence measured (490 nm excitation, 520 nm emission) with a Fluoromax-3 spectrophotometer. Peptides of the BH3 domain were incubated with the Bcl-xL(ΔC) 5 min prior to mixing with liposomes. AA1 was added to liposomes 1 min before adding the Bcl-xL(ΔC) protein. Samples for kinetic assays were analyzed in a thermostatted cuvette at 37° C. with constant stirring. Dose responses were measured in black quartz microplates (Hellma) at room temperature. Calcein release was expressed as percentage of maximum release with detergent lysis (0.1% Triton X-100).

RPMI-8226 cells [2] = test: Combined cytotoxicity with standard anticancer agents; format: cell-based, human; conditions: suboptimal combinations, 24 h
Experimental: Concentrations of standard chemotherapeutic agents were adjusted to achieve <20% cell death as single agents over 24 h treatments. Cells treated with 20 μg/ml 2-OMe antimycin A1 and indicated concentrations of etoposide, melphalan or daunorubicin. Predicted viability at 24 h is derived from additive cytotoxicity of single agents (open symbols). Observed viability for combination (closed symbols). Each symbol represents separate experiment. Viabilities (PI-negative) are normalized to untreated cells.

NOD/SCID mice = test: In vivo toxicity, intravenous dosing
Experimental: (§1) 2-OMe antimycin A1 was synthesized from antimycin A1 (Sigma) and dissolved in phosphate-buffered saline with 20% Cremaphor, 25% ethanol (3 mg/ml) for parenteral administration by tail vein injection in a total volume of 100 μl. Control mice received injections of Cremaphor/ethanol vehicle.
(§2) To determine whether 2-OMeAA1 has anti-tumor activity in vivo, a total of 12 NOD/SCID mice in three experiments were inoculated with 3×10^7 RPMI-8226 human myeloma cells by interscapular subcutaneous injection. […] In total, six mice received three intravenous doses of 10 mg/kg 2-OMeAA1 on alternate days starting on day 6. Six control mice received injections of Cremaphor/ethanol vehicle without drug.

[3] = tested on: RPMI-8226 human myeloma cells; test: RPMI-8226 myeloma tumor xenografts
Experimental: Six to nine-week old Nod/Les2 Scid/J mice were inoculated with 3×10^7 RPMI-8226 cells by interscapular subcutaneous injection. Mice were maintained under specific pathogen-free conditions. Palpable tumor nodules were measured in two dimensions with calipers and tumor volumes calculated in mm^3 as (length×width^2)/2. Blood samples were collected by retro-orbital bleed for human light chain measurements by ELISA with lambda-specific antibody and horseradish peroxidase detection (BD Biosciences). Animals were sacrificed by halothane inhalation, and histologic examination of tumors and internal organs was performed. All experiments were approved by the Fred Hutchinson Cancer Research Center Institutional Animal Care and Use Committee.
as §1
Tissues were fixed in 10% buffered formalin, embedded in paraffin, sectioned and stained with hematoxylin and eosin. TUNEL staining was performed using 0.3 units/ml terminal deoxynucleotidyl transferase and biotinylated dATP with development by avidin-biotin peroxidase method. Bcl-xL immunohistochemistry was performed using anti-Bcl-xL antibody (BD Biosciences) followed by biotinylated secondary antibody and peroxidase-labeled ABC reagent (Vector, Burlingame Calif.).
as §2

[4] = LC/MS analyses of plasma after administration; format: in vivo, mice; conditions: preliminary LC/MS analyses
[5] = tested on: TAMH cells over-expressing Bcl-xL A142L; test: STS and antimycin toxicity, Alamar Blue viability; format: cell-based, murine; conditions: for LD50: 24 h treatment
Experimental: (§3) TAMH cells were transfected with DNA encoding each of the mutant Bcl-xL proteins by lipofection (See Example 1 for method). For analysis of Bcl-xL expression, 20 μg of cell protein was separated by 20% SDS-PAGE and transferred to nitrocellulose membranes. Immunodetection of Bcl-xL was carried out using rabbit anti-Bcl-xL antibody and Protein A/horseradish peroxidase conjugate, followed by chemiluminescent detection. Cells were grown to about 80% confluence in 96-well plates followed by addition of 100 μl of 2×AA1 or staurosporine (STS) solution in complete medium. STS is a natural product originally isolated from the bacterium Streptomyces and found to be capable of inducing apoptosis in certain cells and which induction of apoptosis could be blocked by the expression of a Bcl-2 family protein. Cell viability was determined spectrophotometrically after 24 h treatment as the ratio of reduced and oxidized Alamar Blue (BIOSOURCE) at 570 nm and 600 nm, respectively. All results were normalized against DMSO controls. LD50 values were calculated by non-linear regression analysis using Prism software (Graphpad).

[6] = tested on: TAMH cells over-expressing Bcl-xL E92L; test: STS and antimycin toxicity, Alamar Blue viability; format: cell-based, murine; conditions: 24 h treatment
Experimental: as §3

[7] = tested on: TAMH cells over-expressing Bcl-xL F146L; test: STS and antimycin toxicity, Alamar Blue viability; format: cell-based, murine; conditions: for LD50: 24 h treatment
Experimental: as §3

[8] = tested on: TAMH cells over-expressing Bcl-xL F97W; test: STS and antimycin toxicity, Alamar Blue viability; format: cell-based, murine; conditions: 24 h treatment
Experimental: as §3

[9] = tested on: TAMH cells over-expressing Bcl-xL WT; test: STS and antimycin toxicity, Alamar Blue viability; format: cell-based, murine; conditions: 24 h treatment
Experimental: as §3

Bcl-xL(ΔC) A142L = molecular target: T2, Bcl-xL(ΔC) A142L (Homo sapiens, UniProt Q07817, A142L); test: Fluorescence anisotropy binding
T2 construct: inferred from pET22b(+) NdeI/XhoI cloning and nickel-NTA purification) (C); made in house; host or cells: Escherichia coli BL21(DE3) carrying pUB520
T2 sequence (Q07817 1-211 A142L limits assumed): as the sequence (Q07817 1-211 limits assumed, stated change not applied) above, with A142L counted along it
Experimental: (§4) A pET22b (Novagen) vector coding for Bcl-xL(ΔC), a mutant Bcl-xL protein without the COOH terminal region, was transformed into Escherichia coli BL21(DE3) cells that carried pUB520 (encoding human Arg tRNA) and grown to an A600 of 0.6. Protein expression was induced with 0.1 mM isopropyl β-D-thiogalactoside at 30° C. The cells were resuspended 1:5 (w/v) in PEB buffer (50 mM Tris, pH 8.0, 200 mM NaCl, 0.2 mM phenylmethylsulfonyl fluoride, 5 mM β-mercaptoethanol, 5 mM imidazole, and 1% (v/v) glycerol), and stirred for 20 min at 4° C. Cells were disrupted by pulse sonication, and the soluble fraction was loaded onto a nickel-nitrilotriacetic acid column (Qiagen) equilibrated with PEB buffer. The column was washed with 40 mM imidazole, eluted with 200 mM imidazole, and the protein fractions were pooled and dialyzed (50 mM Tris, pH 8.0, 200 mM NaCl, 0.2 mM phenylmethylsulfonyl fluoride) at 4° C. overnight. The dialyzed protein was concentrated to 10 mg/ml and fractionated on a Superdex 75 gel filtration column (Amersham Biosciences). The fractions containing Bcl-xL(ΔC) protein were pooled, exchanged into low-salt buffer (same as for previous dialysis buffer, except 50 mM NaCl), and loaded onto a MonoQ anion exchange column (Amersham Biosciences). Protein was eluted from the column with increasing NaCl gradient, pooled and concentrated.
(§5) All reagents were prepared in 0.2 μm-filtered PBS with fresh 1 mM DTT. […] Slit widths were set at 10 nm for both excitation and emission.

Bcl-xL(ΔC) F146L = molecular target: T3, Bcl-xL(ΔC) F146L (Homo sapiens, UniProt Q07817, F146L); test: Fluorescence anisotropy binding
T3 construct: inferred from pET22b(+) NdeI/XhoI cloning and nickel-NTA purification) (C); made in house; host or cells: Escherichia coli BL21(DE3) carrying pUB520
T3 sequence (Q07817 1-211 F146L limits assumed): as the sequence (Q07817 1-211 limits assumed, stated change not applied) above, with F146L counted along it
Experimental: as §4, §5

Bcl-xL(ΔC) F97W = molecular target: T4, Bcl-xL(ΔC) F97W (Homo sapiens, UniProt Q07817, F97W); test: Fluorescence anisotropy binding
T4 construct: inferred from pET22b(+) NdeI/XhoI cloning and nickel-NTA purification) (C); made in house; host or cells: Escherichia coli BL21(DE3) carrying pUB520
T4 sequence (Q07817 1-211 F97W limits assumed): as the sequence (Q07817 1-211 limits assumed, stated change not applied) above, with F97W counted along it
Experimental: as §4, §5

[10] = tested on: TAMH vector-only control cells; test: STS toxicity, Alamar Blue viability; format: cell-based, murine; conditions: 24 h treatment
Experimental: as §3

2-OMe antimycin A5
activity (GI50) relative to 2-OMe antimycin A1, A2 and A3 (RPMI-8226 cells [1]): approximately ⅓

CCCCCC[C@H]1C(=O)O[C@H](C)[C@H](NC(=O)c2cccc(NC=O)c2OC)C(=O)O[C@@H](C)[C@@H]1OC(=O)CC(C)C [2-OMeAA1, 2-OMe antimycin A1]
effect on Bcl-xL pore-forming activity (FIG. 3A) (Bcl-xL(ΔC) WT): inhibited
combined killing with etoposide or melphalan (RPMI-8226 cells [2]): Supra-additive killing
histologic examination of normal tissues (NOD/SCID mice; 10 mg/kg): No cellular injury or inflammation
LD50 dose (NOD/SCID mice; schedule of 3 intravenous doses on alternate days): 20 mg/kg
mice survived without apparent toxicity (NOD/SCID mice; three intravenous doses at 10 mg/kg on alternate days): 6/6
adverse effects in treated mice ([3]; 10 mg/kg): No adverse effects
average reduction of serum levels of human light chain ([3]; 10 mg/kg i.v., after the third injection): 87%
mice with regression of tumor nodules, second round ([3]; 10 mg/kg on alternate days, days 26 to 31): six of six
apoptosis in tumor sections ([3]; 24 and 48 h after a single 10 mg/kg intravenous treatment): widespread apoptosis
mice with tumor regression during treatment ([3]; three i.v. doses of 10 mg/kg on alternate days from day 6): Five of six
reformation of antimycin A1 in plasma [4]: have not demonstrated reformation of antimycin A1

CCCCCC[C@H]1C(=O)O[C@H](C)[C@H](NC(=O)c2cccc(NC=O)c2O)C(=O)O[C@@H](C)[C@@H]1OC(=O)CC(C)C [AA1, antimycin A1]
sensitivity of mutant cells to antimycin A1 [5]: completely insensitive
LD50 [5]: >10 µM
LD50 [6]: 1.72 ± 0.34^2 μM
LD50 ([6]; listed as antimycin A1): 1.72 ± 0.3 µM
sensitivity of mutant cells to antimycin A1 [7]: completely insensitive
LD50 [7]: >10 µM
LD50 [8]: 5.12 ± 0.94^2 μM
LD50 ([8]; listed as antimycin A1): 5.12 ± 0.9 µM
LD50 [9]: 0.47 ± 0.07 µM
LD50 ([9]; listed as antimycin A1): 0.47 µM
fold increase in Kd of AA1 binding compared with Bcl-xL wt(ΔC) (Bcl-xL(ΔC) A142L): 20 fold
fold decrease in AA1 affinity (Bcl-xL(ΔC) F146L): ~10 fold
fold increase in Kd of AA1 binding compared with Bcl-xL wt(ΔC) (Bcl-xL(ΔC) F97W): 8 fold
effect on Bcl-xL pore-forming activity (FIG. 3A) (Bcl-xL(ΔC) WT): inhibited

CN[C@@H]1C[C@H]2O[C@@](C)([C@@H]1OC)n1c3ccccc3c3c4c(c5c6ccccc6n2c5c31)C(=O)NC4 [STS, staurosporine]
LD50 [5]: 0.49 ± 0.11 µM
LD50 [6]: 0.52 ± 0.12 µM
LD50 [7]: 0.38 ± 0.04 µM
LD50 [8]: 0.34 ± 0.10 µM
LD50 [9]: 0.58 ± 0.1 µM and 0.58 ± 0.14 µM
LD50 [10]: 0.11 ± 0.01 µM
